{"source": "patent US12692251B2", "about": "“Pralsetinib pharmaceutical compositions” (Rigel Pharmaceuticals, Inc., priority 2020, dated 2026)", "key": {"[1]": {"test": "Solid form stability to humidity and drying", "type": "physicochemical", "settings": "for stability to drying: 50° C. (under vacuum) where stated", "experimental": "In one aspect, the present disclosure provides a process for preparing crystalline Form A, Form B or Form C. In a particular aspect, Form A can be obtained by slurrying in alcohols, acetone, and acetonitrile or Form A was prepared by evaporative crystallization in multiple solvents and cooling crystallization in isopropanol and 1-propanol. Form A can also be produced by recrystallization in acetone:water. Form C can be obtained by recrystallizing Compound (I) in various water containing solvent systems (acetone:water, methanol:water, isopropanol:water, dimethylacetamide:water, tetrahydrofuran:water). Form C was stable drying at 50° C. under vacuum, and converted to Form B (anhydrous) upon heating to 150° C. […] Form C was not as hygroscopic as Form A during the dynamic vapor sorption measurements, gaining only 1.44% water."}, "[2]": {"test": "Competitive slurry experiments", "type": "physicochemical"}, "[3]": {"test": "Solubility of pralsetinib and its solid forms", "type": "physicochemical", "settings": "for solubility in simulated gastric fluid: simulated gastric fluid (possibly due to conversion to HCl salt)"}, "[4]": {"test": "Dynamic Vapor Sorption (DVS)", "type": "physicochemical", "settings": "for total mass change by DVS: between 2% and 95% relative humidity", "experimental": "Dynamic Vapor Sorption (DVS) was done using a DVS Intrinsic 1. The sample is loaded into a sample pan and suspended from a microbalance. A typical sample mass for DVS measurement is 25 mg. Nitrogen gas bubbled through distilled water provides the desired relative humidity. A typical measurement comprises the steps: • 1—Equilibrate at 50% RH • 2—50% to 2%. (50%, 40%, 30%, 20%, 10% and 2%) • a. Hold minimum of 5 mins and maximum of 60 minutes at each humidity. The pass criteria is less than 0.002% change • 3 —2% to 95% (2%, 10%, 20%, 30%, 40%, 50%, 60%, 70%, 80%, 90%, 95%) • a. Hold minimum of 5 mins and maximum of 60 minutes at each humidity. The pass criteria is less than 0.002% change • 4—95% to 2% (95%, 80%, 70%, 60%, 50%, 40%, 30%, 20%, 10%, 2%) • a. Hold minimum of 5 mins and maximum of 60 minutes at each humidity. The pass criteria is less than 0.002% change • 5—2% to 50% (2%, 10%, 20%, 30%, 40%, 50%) • a. Hold minimum of 5 mins and maximum of 60 minutes at each humidity. The pass criteria is less than 0.002% change"}, "[5]": {"test": "Accelerated stability for 4 weeks at 40° C./75% RH", "type": "physicochemical", "settings": "Compositions 1-3", "experimental": "The manufacturing process for the Compositions 1-3 are as follows: • 1) Intragranular components were blended in a suitably sized contained using the Turbula blender for 3 minutes at 23 rpm • 2) Intragranular blend was dry granulated by densification using a Riva minipress fitted with 22×9 mm caplet tooling • 3) Resultant material was milled using a Comil 193 fitted with 991 μm screen 4) Granule bulk density was determined and if not within 0.55-0.6 g/mL, densification and milling repeated until the desired bulk density was achieved • 5) Extragranular components were blend with the granules in a Turbula blender for 2 minutes at 23 rpm • 6) Final blend was hand filled in to Size 0 HPMC Capsules (Vcaps® Plus) • 7) Capsules were packed into 60 mL HDPE bottles with 4 g desiccant cap at a count of 30 capsules per bottle • 8) Packed product was placed on accelerated stability for 4 weeks at 40° C./75% RH"}, "[6]": {"test_system": "VEGFR2", "settings": "in vivo; cited from earlier work"}, "[7]": {"test_system": "NSCLC and thyroid cancer xenografts driven by various RET mutations and fusions", "settings": "in vivo; cited from earlier work"}}}
{"smiles": "CO[C@]1(C(=O)N[C@@H](C)c2ccc(-n3cc(F)cn3)nc2)CC[C@H](c2nc(C)cc(Nc3cc(C)[nH]n3)n2)CC1", "note": "[Form A, (cis)-N—((S)-1-(6-(4-fluoro-1H-pyrazol-1-yl)pyridin-3-yl)ethyl)-1-methoxy-4-(4 methyl-6-(5-methyl-1H-pyrazol-3-ylamino)pyrimidin-2-yl)cyclohexanecarboxamide]", "values": [{"measurement": "conversion on prolonged humidity exposure", "setting": "[1]; prolonged humidity exposure", "value": "did not convert to Form C"}, {"measurement": "form conversion in competitive slurry, methanol:water", "setting": "[2]; methanol:water at high ratios of water to methanol and lower temperatures", "value": "converted to Form C"}, {"measurement": "solubility in simulated gastric fluid", "setting": "[3]", "value": "high solubility"}, {"measurement": "solubility in simulated intestinal fluid", "setting": "[3]", "value": "low solubility"}, {"measurement": "solubility in water", "setting": "[3]", "value": "low solubility"}, {"measurement": "reversible mass change by DVS", "setting": "[4]; between 2-95% relative humidity", "value": "about 10%"}]}
{"smiles": "CO[C@]1(C(=O)N[C@@H](C)c2ccc(-n3cc(F)cn3)nc2)CC[C@H](c2nc(C)cc(Nc3cc(C)[nH]n3)n2)CC1", "note": "[Form B, (cis)-N—((S)-1-(6-(4-fluoro-1H-pyrazol-1-yl)pyridin-3-yl)ethyl)-1-methoxy-4-(4 methyl-6-(5-methyl-1H-pyrazol-3-ylamino)pyrimidin-2-yl)cyclohexanecarboxamide]", "values": [{"measurement": "total mass change by DVS", "setting": "[4]", "value": 1.4, "unit": "wt. %"}]}
{"smiles": "CO[C@]1(C(=O)N[C@@H](C)c2ccc(-n3cc(F)cn3)nc2)CC[C@H](c2nc(C)cc(Nc3cc(C)[nH]n3)n2)CC1", "note": "[Form C, (cis)-N—((S)-1-(6-(4-fluoro-1H-pyrazol-1-yl)pyridin-3-yl)ethyl)-1-methoxy-4-(4 methyl-6-(5-methyl-1H-pyrazol-3-ylamino)pyrimidin-2-yl)cyclohexanecarboxamide]", "values": [{"measurement": "stability by X-ray powder diffraction during humidity testing", "setting": "[1]; 75% relative humidity and 40° C. for one week, and cycling down to 2% relative humidity by DVS", "value": "remained stable"}, {"measurement": "form conversion in competitive slurry, acetone and isopropanol", "setting": "[2]; acetone and isopropanol", "value": "converted to Form A"}, {"measurement": "solubility in simulated gastric fluid", "setting": "[3]", "value": "high solubility"}, {"measurement": "solubility in simulated intestinal fluid", "setting": "[3]", "value": "lower solubility than Form A"}, {"measurement": "solubility in water", "setting": "[3]", "value": "lower solubility than Form A"}, {"measurement": "water gained during dynamic vapor sorption measurements", "setting": "[4]", "value": 1.44, "unit": "%"}, {"measurement": "total mass change by DVS", "setting": "[4]", "value": 1.4, "unit": "wt. %"}]}
{"smiles": "COC1(C(=O)NC(C)c2ccc(-n3cc(F)cn3)nc2)CCC(c2nc(C)cc(Nc3cc(C)[nH]n3)n2)CC1.Cl", "note": "(centres unmarked) [Form III]", "values": [{"measurement": "behaviour at elevated humidity / humidification", "setting": "[1]", "value": "stable to humidification"}]}
{"smiles": "CO[C@]1(C(=O)N[C@@H](C)c2ccc(-n3cc(F)cn3)nc2)CC[C@H](c2nc(C)cc(Nc3cc(C)[nH]n3)n2)CC1.Cl", "note": "[Form II]", "values": [{"measurement": "stability to drying", "setting": "[1]", "value": "converted to Form III"}]}
{"smiles": "COC1(C(=O)NC(C)c2ccc(-n3cc(F)cn3)nc2)CCC(c2nc(C)cc(Nc3cc(C)[nH]n3)n2)CC1.Cl", "note": "(centres unmarked) [Form I]", "values": [{"measurement": "stability to drying", "setting": "[1]", "value": "stable to drying"}, {"measurement": "behaviour at elevated humidity / humidification", "setting": "[1]", "value": "deliquesced"}]}
{"smiles": "CO[C@]1(C(=O)N[C@@H](C)c2ccc(-n3cc(F)cn3)nc2)CC[C@H](c2nc(C)cc(Nc3cc(C)[nH]n3)n2)CC1", "note": "[pralsetinib, (cis)-N—((S)-1-(6-(4-fluoro-1H-pyrazol-1-yl)pyridin-3-yl)ethyl)-1-methoxy-4-(4 methyl-6-(5-methyl-1H-pyrazol-3-ylamino)pyrimidin-2-yl)cyclohexanecarboxamide]", "values": [{"measurement": "physical form by XRPD after storage", "setting": "[5]", "value": "remains as an amorphous solid dispersion"}, {"measurement": "inhibition of VEGFR2", "setting": "[6]", "value": "without inhibiting"}, {"measurement": "aqueous solubility", "setting": "[3]", "value": "low aqueous solubility"}, {"measurement": "solubility in acidic pH", "setting": "[3]; acidic pH (pH 1.2 medium)", "value": "relatively high solubility"}, {"measurement": "growth of xenografts", "setting": "[7]", "value": "potently inhibits growth"}]}
